Source: patent US20230015949A1, “NEISSERIA TREATMENT USING CANNABINOIDS” (priority 2019, published 2023)
In brackets after ≈: the same amount, converted by molar mass.

System: Neisseria gonorrhoeae
Assay: Agar dilution MIC assay, 25 isolates (Example 3)
Type: cell-based
Settings: for Number of isolates at MIC 0.015 μg mL^−1 / Number of isolates at MIC 0.03 μg mL^−1 / Number of isolates at MIC 0.06 μg mL^−1 / Number of isolates at MIC 0.08 μg mL^−1 / Number of isolates at MIC 0.12 μg mL^−1 / Number of isolates at MIC 0.25 μg mL^−1 / Number of isolates at MIC 0.5 μg mL^−1 / Number of isolates at MIC 1 μg mL^−1 / Number of isolates at MIC 2 μg mL^−1 / Number of isolates at MIC 4 μg mL^−1 / Number of isolates at MIC 8 μg mL^−1 / Number of isolates at MIC >8 μg mL^−1 / Number of isolates at MIC ≤0.004 μg mL^−1: 25 isolates, agar dilution assay, MIC distribution; for MIC / MIC50 / MIC90: Neisseria gonorrhoeae, agar dilution; for MIC50 / MIC90: 25 isolates of N. gonorrhoeae
Method: The MIC of Neisseria gonorrhoea was established using an agar dilution MIC assay.
Test drugs were provided by Micromyx. All stock solutions were allowed to stand for at least 1 hr prior to use to auto-sterilize. Leftover stock solutions of comparator drugs were aliquoted and stored at −80° C. Suppliers, catalog/lot numbers, solvents, stock concentrations and testing ranges were as follows.
Test organisms were reference strains from the American Type Culture Collection (ATCC; Manassas, Va.), isolates from WHO, isolates from the CDC antibiotic resistance bank, and clinical isolates from the Micromyx (MMX) repository. Upon receipt at Micromyx, the isolates were streaked under suitable conditions onto agar medium appropriate to each organism and were incubated for 24-48 hr at 35° C. Colonies harvested from these growth plates were resuspended in the appropriate medium containing a cryoprotectant. Aliquots of each suspension were then frozen at −80° C.
Prior to testing, the isolates were sub-cultured onto Chocolate agar (Becton Dickenson [BD]/BBL; Sparks, Md., Cat. No. 221267, Lot No. 9346275) and placed at 35° C. in a CO2 incubator for 24 hrs.
MIC values were determined using the agar dilution method (1, 2). All serial dilutions and liquid handling were performed by hand using sterile pipettes. […] Cannabidiol was prepared as a stock solution at 100× the final concentration in the appropriate solvent and diluted according to CLSI guidelines.
Each test agent was mixed with molten (50-55° C.) GC media agar supplemented with 1% IsoVitalex. […] All other test agents were added to the medium in a ratio of 0.2 mL 100× test agent to 19.8 mL agar. Once test agents were added to the agar in a sterile tube, they were mixed gently and then poured into a sterile 110×15 mm petri dish. Plates were allowed to solidify at room temperature and placed in a laminar air flow hood with the covers off to remove condensed moisture on the agar surface.
Next, each isolate was suspended to the equivalent of a 0.5 McFarland standard in saline using a Siemens Microscan turbidity meter and diluted 1:10. Each bacterial cell suspension was then transferred to wells in a stainless-steel replicator block. The prongs on the replicator deliver approximately 1-2 μl of inoculum to an agar surface. The resulting inoculum spots contained approximately 10^4 cells/spot.
Each agar plate containing either test compound or no drug (control) was stamped with the replicator. All plates were placed with the agar surface up to allow for the inoculum to soak into the agar. The plates were inverted and incubated at 35° C. for 24 hrs in a CO2 incubator and finally inspected for growth.

[1] = ATCC49226, N. gonorrhoeae ATCC 49226 (QC)
[2] = N. gonorrhoeae MMX 10409 (CIP-R)
[3] = NCTC13477, N. gonorrhoeae NCTC 13477 (WHO F)
[4] = NCTC13478, N. gonorrhoeae NCTC 13478 (WHO G)
[5] = NCTC13479, N. gonorrhoeae NCTC 13479 (WHO K)
[6] = NCTC13480, N. gonorrhoeae NCTC 13480 (WHO L)
[7] = NCTC13481, N. gonorrhoeae NCTC 13481 (WHO M)
[8] = NCTC13482, N. gonorrhoeae NCTC 13482 (WHO N)
[9] = NCTC13483, N. gonorrhoeae NCTC 13483 (WHO O)
[10] = NCTC13817, N. gonorrhoeae NCTC 13817 (WHO U)
[11] = NCTC13818, N. gonorrhoeae NCTC 13818 (WHO V)
[12] = NCTC13819, N. gonorrhoeae NCTC 13819 (WHO W)
[13] = NCTC13820, N. gonorrhoeae NCTC 13820 (WHO X)

In the case of `C=C(C)C1CCC(C)=CC1c1c(O)cc(CCCCC)cc1O` (stereo not shown) [CBD, 2-[3-methyl-6-(1-methylethenyl)-2-cyclohexen-1-yl]-5-pentyl-1,3-benzenediol], the “Number of isolates at MIC 0.015 μg mL^−1” value is reported as 0, the “Number of isolates at MIC 0.03 μg mL^−1” value is reported as 0 and the “Number of isolates at MIC 0.06 μg mL^−1” value is reported as 0. The “Number of isolates at MIC 0.08 μg mL^−1” value was 0, the “Number of isolates at MIC 0.12 μg mL^−1” value was 0 and the “Number of isolates at MIC 0.25 μg mL^−1” value was 0. The “Number of isolates at MIC 0.5 μg mL^−1” value was 2, the “Number of isolates at MIC 1 μg mL^−1” value was 14 and the “Number of isolates at MIC 2 μg mL^−1” value was 9. The “Number of isolates at MIC 4 μg mL^−1” value was 0, the “Number of isolates at MIC 8 μg mL^−1” value was 0 and the “Number of isolates at MIC >8 μg mL^−1” value was 0. For the same compound, the “Number of isolates at MIC ≤0.004 μg mL^−1” value was 0, the MIC [1] was 2 µg/mL (≈ 6.36 µM) and the MIC (N. gonorrhoeae CDC0165) was 2 µg/mL (≈ 6.36 µM). It also gave an MIC (N. gonorrhoeae CDC0166) of 9 µg/mL (≈ 28.6 µM), an MIC (N. gonorrhoeae CDC0167) of 1 µg/mL (≈ 3.18 µM) and an MIC (N. gonorrhoeae CDC 0172) of 7 µg/mL (≈ 22.3 µM). It also gave an MIC (N. gonorrhoeae CDC 0175) of 1 µg/mL (≈ 3.18 µM), an MIC (N. gonorrhoeae CDC 0177) of 1 µg/mL (≈ 3.18 µM) and an MIC (N. gonorrhoeae CDC 0178) of 2 µg/mL (≈ 6.36 µM). It also gave an MIC (N. gonorrhoeae CDC 0180) of 7 µg/mL (≈ 22.3 µM), an MIC (N. gonorrhoeae CDC 0181) of 0.5 µg/mL (≈ 1.59 µM) and an MIC (N. gonorrhoeae CDC 0194) of 1 µg/mL (≈ 3.18 µM). For the same compound, the MIC (N. gonorrhoeae CDCO174) was 2 µg/mL (≈ 6.36 µM), the MIC [2] was 1 µg/mL (≈ 3.18 µM) and the MIC [3] was 1 µg/mL (≈ 3.18 µM). The MIC [4] was 1 µg/mL (≈ 3.18 µM), the MIC [5] was 0.5 µg/mL (≈ 1.59 µM) and the MIC [6] was 2 µg/mL (≈ 6.36 µM). It also gave an MIC [7] of 1 µg/mL (≈ 3.18 µM), an MIC [8] of 1 µg/mL (≈ 3.18 µM) and an MIC [9] of 1 µg/mL (≈ 3.18 µM). It also gave an MIC (NCTC13484, N. gonorrhoeae NCTC 13484 (WHO P)) of 7 µg/mL (≈ 22.3 µM), an MIC [10] of 1 µg/mL (≈ 3.18 µM) and an MIC [11] of 1 µg/mL (≈ 3.18 µM). For the same compound, the MIC [12] was 1 µg/mL (≈ 3.18 µM), the MIC [13] was 1 µg/mL (≈ 3.18 µM) and the MIC50 was 1 µg/mL (≈ 3.18 µM). For the same compound, the MIC90 was 2 µg/mL (≈ 6.36 µM).

With `CO/N=C(\C(=O)N[C@@H]1C(=O)N2C(C(=O)O)=C(CSc3nc(=O)c(=O)[nH]n3C)CS[C@H]12)c1csc(N)n1` [CRO, ceftriaxone] the “Number of isolates at MIC 0.015 μg mL^−1” value was 6, the “Number of isolates at MIC 0.03 μg mL^−1” value was 1 and the “Number of isolates at MIC 0.06 μg mL^−1” value was 6. For the same compound, the “Number of isolates at MIC 0.08 μg mL^−1” value was 5, the “Number of isolates at MIC 0.12 μg mL^−1” value was 1 and the “Number of isolates at MIC 0.25 μg mL^−1” value was 2. For the same compound, the “Number of isolates at MIC 0.5 μg mL^−1” value was 0, the “Number of isolates at MIC 1 μg mL^−1” value was 0 and the “Number of isolates at MIC 2 μg mL^−1” value was 1. The “Number of isolates at MIC 4 μg mL^−1” value was 0, the “Number of isolates at MIC 8 μg mL^−1” value was 0 and the “Number of isolates at MIC >8 μg mL^−1” value was 0. For the same compound, the “Number of isolates at MIC ≤0.004 μg mL^−1” value was 3, the MIC [1] was 0.015 µg/mL (≈ 0.027 µM) and the MIC (N. gonorrhoeae CDC0165) was 0.06 µg/mL (≈ 0.108 µM). It also gave an MIC (N. gonorrhoeae CDC0167) of 0.004 µg/mL (≈ 0.00721 µM), an MIC (N. gonorrhoeae CDC 0175) of 0.008 µg/mL (≈ 0.0144 µM) and an MIC (N. gonorrhoeae CDC 0177) of 0.015 µg/mL (≈ 0.027 µM). For the same compound, the MIC (N. gonorrhoeae CDC 0178) was 0.06 µg/mL (≈ 0.108 µM), the MIC (N. gonorrhoeae CDC 0181) was 0.008 µg/mL (≈ 0.0144 µM) and the MIC (N. gonorrhoeae CDC 0194) was 0.25 µg/mL (≈ 0.451 µM). For the same compound, the MIC (N. gonorrhoeae CDCO174) was 0.06 µg/mL (≈ 0.108 µM), the MIC [2] was 0.06 µg/mL (≈ 0.108 µM) and the MIC [3] was < 0.004 µg/mL. It also gave an MIC [4] of 0.015 µg/mL (≈ 0.027 µM), an MIC [5] of 0.015 µg/mL (≈ 0.027 µM) and an MIC [6] of 0.25 µg/mL (≈ 0.451 µM). For the same compound, the MIC [7] was 0.008 µg/mL (≈ 0.0144 µM), the MIC [8] was 0.008 µg/mL (≈ 0.0144 µM) and the MIC [9] was 0.015 µg/mL (≈ 0.027 µM). It also gave an MIC [10] of 0.002 µg/mL (≈ 0.00361 µM), an MIC [11] of 0.015 µg/mL (≈ 0.027 µM) and an MIC [12] of 0.12 µg/mL (≈ 0.216 µM). It also gave an MIC [13] of 2 µg/mL (≈ 3.61 µM), an MIC50 of 0.015 µg/mL (≈ 0.027 µM) and an MIC90 of 0.25 µg/mL (≈ 0.451 µM).
